Test results published in patent US12479827B2, “Heteroaromatic carboxamide derivatives as plasma kallikrein inhibitors” (Boehringer Ingelheim International GmbH, priority 2020, dated 2025).

What was measured:
[1] = target: T1, PKK in kaolin activated human platelet poor plasma (Homo sapiens, UniProt P03952); assay: Inhibition of PKK in kaolin activated human PPP; assay type: biochemical; settings: 25-750 μg/mL kaolin, global fit, text b200 calls the values IC90;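 also: readout is the rate of fluorogenic substrate cleavage in rfu per min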
T1 construct: Platelet poor plasma (PPP) obtained from human wholeblood; from tissue
T1 sequence (P03952 391-638 limits assumed): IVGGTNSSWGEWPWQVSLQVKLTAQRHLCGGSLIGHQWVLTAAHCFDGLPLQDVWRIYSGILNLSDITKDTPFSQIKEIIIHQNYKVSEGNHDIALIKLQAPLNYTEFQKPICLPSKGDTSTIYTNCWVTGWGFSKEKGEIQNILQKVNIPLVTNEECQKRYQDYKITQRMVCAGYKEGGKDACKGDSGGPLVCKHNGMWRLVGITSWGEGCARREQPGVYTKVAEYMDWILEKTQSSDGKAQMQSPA
T1 sequence (P03952 20-390 limits assumed): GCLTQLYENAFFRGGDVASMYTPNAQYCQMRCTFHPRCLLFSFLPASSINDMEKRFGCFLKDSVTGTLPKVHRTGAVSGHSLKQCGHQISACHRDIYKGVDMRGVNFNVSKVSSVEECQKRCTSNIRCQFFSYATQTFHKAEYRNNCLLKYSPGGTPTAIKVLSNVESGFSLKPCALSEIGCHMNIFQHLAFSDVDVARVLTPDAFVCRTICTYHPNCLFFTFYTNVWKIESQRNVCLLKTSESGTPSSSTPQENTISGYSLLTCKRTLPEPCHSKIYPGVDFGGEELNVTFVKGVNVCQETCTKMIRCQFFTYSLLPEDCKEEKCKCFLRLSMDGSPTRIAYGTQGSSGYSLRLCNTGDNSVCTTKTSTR
Experimental: Platelet poor plasma (PPP) obtained from human wholeblood, anticoagulated with Na-Citrate, is incubated with various concentrations of the test compound together with either 25, 75, 250, or 750 μg/mL kaolin in assay buffer for 20 min at 37° C. such that for each kaolin dose used a concentration response is obtained for the test compound.

Human PKK = target: T2, Human PKK (Homo sapiens, UniProt P03952); assay: Inhibition of PKK using an endpoint assay (human PKK); assay type: biochemical; settings: fluorogenic substrate H-Pro-Phe-Arg-AMC, 1 h room temperature, method names human or rat PKK, table does not say which
T2 construct: purchased Enzyme Research Laboratories
T2 sequence (P03952 20-390 limits assumed): as above
T2 sequence (P03952 391-638 limits assumed): as the sequence (P03952 391-638 limits assumed) above
Summary of the method: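 Endpoint fluorescence (ex 355 nm, em 460 nm) after stopping with 1 μM final PPACK II. Buffer: Tris 100 mM pH 7.8, NaCl 150 mM, BSA 0.1%, Tween20 0.05%, with 1% DMSO present; enzyme is human plasma kallikrein.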

Row | IC50 [1] [nM] | IC50 (Human PKK) [nM] | SMILES
1 | 157 | 0.5 | Cn1cnc2c1CC[C@H]2NC(=O)c1cnn(Cc2ccc(N3CC4CC4C3)c(C#N)c2Cl)c1 (stereo partly drawn) [Example 202, 1-[(4-{3-azabicyclo[3.1.0]hexan-3-yl}-2-chloro-3-cyanophenyl)methyl]-N-[(4R)-1-methyl-1H,4H,5H,6H-cyclopenta[d]imidazol-4-yl]-1H-pyrazole-4-carboxamide]
2 | 202 | 0.7 | Cn1cnc2c1CC[C@H]2NC(=O)c1cn(Cc2ccc(N3CC4CC4C3)c(C#N)c2Cl)cn1 (stereo partly drawn) [Example 203, 1-[(4-{3-azabicyclo[3.1.0]hexan-3-yl}-2-chloro-3-cyanophenyl)methyl]-N-[(4R)-1-methyl-1H,4H,5H,6H-cyclopenta[d]imidazol-4-yl]-1H-imidazole-4-carboxamide]
3 | 818 | 1.5 | Cn1cnc2c1CC[C@H]2NC(=O)c1cn(Cc2ccc(N3CC4CC4C3)cc2Br)cn1 (stereo partly drawn) [Example 204, 1-[(4-{3-azabicyclo[3.1.0]hexan-3-yl}-2-bromophenyl)methyl]-N-[(4R)-1-methyl-1H,4H,5H,6H-cyclopenta[d]imidazol-4-yl]-1H-imidazole-4-carboxamide]
4 | 138 | 0.4 | Cn1cnc2c1CC[C@H]2NC(=O)c1cn(Cc2ccc(N3CC4CC4C3)cc2C#N)cn1 (stereo partly drawn) [Example 206, 1-[(4-{3-azabicyclo[3.1.0]hexan-3-yl}-2-cyanophenyl)methyl]-N-[(4R)-1-methyl-1H,4H,5H,6H-cyclopenta[d]imidazol-4-yl]-1H-imidazole-4-carboxamide]
5 | 745 | 3.2 | Cn1cnc2c1CC[C@H]2NC(=O)c1cn(Cc2ccc(N3CC4CC4C3)cc2CO)cn1 (stereo partly drawn) [Example 207, 1-[(4-{3-azabicyclo[3.1.0]hexan-3-yl}-2-(hydroxymethyl)phenyl)methyl]-N-[(4R)-1-methyl-1H,4H,5H,6H-cyclopenta[d]imidazol-4-yl]-1H-imidazole-4-carboxamide]
6 | 80 | 0.6 | Cn1cnc2c1CC[C@H]2NC(=O)c1cnn(Cc2ccc(N3CC4C(C3)C4(F)F)cc2C#N)c1 (stereo partly drawn) [Example 208, 1-[(2-cyano-4-{6,6-difluoro-3-azabicyclo-[3.1.0]hexan-3-yl}phenyl)methyl]-N-[(4R)-1-methyl-1H,4H,5H,6H-cyclopenta[d]imidazol-4-yl]-1H-pyrazole-4-carboxamide]
7 | 432 | 1.5 | Cn1cnc2c1CC[C@H]2NC(=O)c1cnn(Cc2ccc(N3CC4C(C3)C4(F)F)cc2Br)c1 (stereo partly drawn) [Example 209, 1-[(2-bromo-4-{6,6-difluoro-3-azabicyclo-[3.1.0]hexan-3-yl}phenyl)methyl]-N-[(4R)-1-methyl-1H,4H,5H,6H-cyclopenta[d]imidazol-4-yl]-1H-pyrazole-4-carboxamide]
8 | 128 | 0.4 | Cn1cnc2c1CC[C@H]2NC(=O)c1cn(Cc2ccc(N3CC4C(C3)C4(F)F)cc2C#N)cn1 (stereo partly drawn) [Example 210, 1-[(2-cyano-4-{6,6-difluoro-3-azabicyclo-[3.1.0]hexan-3-yl}phenyl)methyl]-N-[(4R)-1-methyl-1H,4H,5H,6H-cyclopenta[d]imidazol-4-yl]-1H-imidazole-4-carboxamide]
9 | 590 | 0.8 | Cn1cnc2c1CC[C@H]2NC(=O)c1cn(Cc2ccc(N3CC4C(C3)C4(F)F)cc2Cl)cn1 (stereo partly drawn) [Example 211, 1-[(2-chloro-4-{6,6-difluoro-3-azabicyclo-[3.1.0]hexan-3-yl}phenyl)methyl]-N-[(4R)-1-methyl-1H,4H,5H,6H-cyclopenta[d]imidazol-4-yl]-1H-imidazole-4-carboxamide]
10 | 1890 | 2.1 | Cn1cnc2c1CC[C@H]2NC(=O)c1cn(Cc2ccc(N3CC4C(C3)C4(F)F)cc2F)cn1 (stereo partly drawn) [Example 212, 1-[(4-{6,6-difluoro-3-azabicyclo[3.1.0]hexan-3-yl}-2-fluorophenyl)methyl]-N-[(4R)-1-methyl-1H,4H,5H,6H-cyclopenta[d]imidazol-4-yl]-1H-imidazole-4-carboxamide]
11 | 621 | 2.3 | Cn1cnc2c1CC[C@H]2NC(=O)c1cnn(Cc2ccc(N3CC4C(C3)C4(F)F)cc2F)c1 (stereo partly drawn) [Example 213, 1-[(4-{6,6-difluoro-3-azabicyclo[3.1.0]hexan-3-yl}-2-fluorophenyl)methyl]-N-[(4R)-1-methyl-1H,4H,5H,6H-cyclopenta[d]imidazol-4-yl]-1H-pyrazole-4-carboxamide]

The remaining lines, values behind:

Row | SMILES | IC50 [1] [nM] | IC50 (Human PKK) [nM]
12 | Cc1nc(N2CC3C(C2)C3(F)F)ccc1Cc1cc(C(=O)N[C@@H]2CCc3c2ncn3C)n(C)n1 (stereo partly drawn) [Example 167, 3-[(6-{6,6-Difluoro-3-azabicyclo[3.1.0]hexan-3-yl}-2-methylpyridin-3-yl)methyl]-1-methyl-N-[(4R)-1-methyl-1H,4H,5H,6H-cyclopenta-[d]imidazol-4-yl]-1H-pyrazole-5-carboxamide] | 272 | 1.3
13 | Cc1nc(N2CC3CC3C2)ccc1Cc1cc(C(=O)N[C@@H]2CCc3c2ncn3C)n(C)n1 (stereo partly drawn) [Example 168, 3-[(6-{3-Azabicyclo[3.1.0]hexan-3-yl}-2-methylpyridin-3-yl)methyl]-1-methyl-N-[(4R)-1-methyl-1H,4H,5H,6H-cyclopenta[d]imidazol-4-yl]-1H-pyrazole-5-carboxamide] | 1860 | 1.5
14 | Cc1nc(N2CC3CC3C2)ncc1Cn1cc(C(=O)N[C@@H]2CCc3c2ncn3C)c2cncnc21 (stereo partly drawn) [Example 174, 7-[(2-{3-Azabicyclo[3.1.0]hexan-3-yl}-4-methylpyrimidin-5-yl)methyl]-N-[(4R)-1-methyl-1H,4H,5H,6H-cyclopenta[d]imidazol-4-yl]-7H-pyrrolo[2,3-d]pyrimidine-5-carboxamide] | 1430 | 1.9
15 | CCOCc1nc(N2CC3C(C2)C3(F)F)ccc1Cn1cc(C(=O)N[C@@H]2CCc3c2ncn3C)cn1 (stereo partly drawn) [Example 179, 1-[(6-{6,6-Difluoro-3-azabicyclo[3.1.0]hexan-3-yl}-2-(ethoxymethyl)pyridin-3-yl)methyl]-N-[(4R)-1-methyl-1H,4H,5H,6H-cyclopenta[d]imidazol-4-yl]-1H-pyrazole-4-carboxamide] | 389 | 4.2
16 | COCc1nc(N2CC3CC3C2)ccc1Cn1cnc(C(=O)N[C@@H]2CCc3c2ncn3C)c1 (stereo partly drawn) [Example 180, 1-[(6-{3-Azabicyclo[3.1.0]hexan-3-yl}-2-(methoxymethyl)pyridin-3-yl)methyl]-N-[(4R)-1-methyl-1H,4H,5H,6H-cyclopenta[d]imidazol-4-yl]-1H-imidazole-4-carboxamide] | 207 | 2.6
17 | Cc1nc(N2CC3CC3C2)ccc1Cc1cc(C(=O)N[C@@H]2CCc3c2ncn3C)co1 (stereo partly drawn) [Example 182, 5-[(6-{3-Azabicyclo[3.1.0]hexan-3-yl}-2-methylpyridin-3-yl)methyl]-N-[(4R)-1-methyl-1H,4H,5H,6H-cyclopenta[d]imidazol-4-yl]furan-3-carboxamide] | 6270 | 7.1
18 | CCc1nc(N2CC3C(C2)C3(F)F)ccc1Cc1ccc(C(=O)N[C@@H]2CCc3c2ncn3C)s1 (stereo partly drawn) [Example 184, 5-[(6-{6,6-Difluoro-3-azabicyclo[3.1.0]hexan-3-yl}-2-ethylpyridin-3-yl)methyl]-N-[(4R)-1-methyl-1H,4H,5H,6H-cyclopenta[d]imidazol-4-yl]thiophene-2-carboxamide] | 2310 | 13.5
19 | Cn1cnc2c1CC[C@H]2NC(=O)c1ccc(Cc2ccc(N3CC4C(C3)C4(F)F)nc2CO)s1 (stereo partly drawn) [Example 185, 5-[(6-{6,6-Difluoro-3-azabicyclo[3.1.0]hexan-3-yl}-2-(hydroxymethyl)pyridin-3-yl)methyl]-N-[(4R)-1-methyl-1H,4H,5H,6H-cyclopenta-[d]imidazol-4-yl]thiophene-2-carboxamide] | 2270 | 10.9
20 | CCc1nc(N2CC3C(C2)C3(F)F)ccc1Cc1ccc(C(=O)N[C@@H]2CCc3c2ncn3C)o1 (stereo partly drawn) [Example 186, 5-[(6-{6,6-difluoro-3-azabicyclo[3.1.0]hexan-3-yl}-2-ethylpyridin-3-yl)methyl]-N-[(4R)-1-methyl-1H,4H,5H,6H-cyclopenta[d]imidazol-4-yl]furan-2-carboxamide] | 236 | 10.9
21 | Cc1nc(N2CC3C(C2)C3(F)F)ccc1Cc1ccc(C(=O)N[C@@H]2CCc3c2ncn3C)s1 (stereo partly drawn) [Example 187, 5-[(6-{6,6-Difluoro-3-azabicyclo[3.1.0]hexan-3-yl}-2-methylpyridin-3-yl)methyl]-N-[(4R)-1-methyl-1H,4H,5H,6H-cyclopenta[d]imidazol-4-yl]thiophene-2-carboxamide] | 2450 | 12.2
22 | Cc1nc(N2CC3C(C2)C3(F)F)ccc1Cc1ncc(C(=O)N[C@@H]2CCc3c2ncn3C)s1 (stereo partly drawn) [Example 188, 2-[(6-{6,6-Difluoro-3-azabicyclo[3.1.0]hexan-3-yl}-2-methylpyridin-3-yl)methyl]-N-[(4R)-1-methyl-1H,4H,5H,6H-cyclopenta[d]imidazol-4-yl]-1,3-thiazole-5-carboxamide] | 1500 | 19.8
23 | Cc1cc(N2CC3C(C2)C3(F)F)ccc1Cn1cc(C(=O)N[C@@H]2CCc3c2ncn3C)cn1 (stereo partly drawn) [Example 199, 1-[(4-{6,6-difluoro-3-azabicyclo[3.1.0]hexan-3-yl}-2-methylphenyl)methyl]-N-[(4R)-1-methyl-1H,4H,5H,6H-cyclopenta[d]imidazol-4-yl]-1H-pyrazole-4-carboxamide] | 808 | 3.1
24 | Cn1cnc2c1CC[C@H]2NC(=O)c1cn(Cc2ccc(N3CC4CC4C3)c(C#N)c2F)cn1 (stereo partly drawn) [Example 201, 1-[(4-{3-azabicyclo[3.1.0]hexan-3-yl}-3-cyano-2-fluorophenyl)methyl]-N-[(4R)-1-methyl-1H,4H,5H,6H-cyclopenta[d]imidazol-4-yl]-1H-imidazole-4-carboxamide] | 130 | 0.6
